Results published in US9499519B2, “Fused pyrimidine compounds and use thereof” (Medivation Technologies, Inc., priority 2012, dated 2016).
Like-named read-outs stand apart in the source and are kept apart here.

Key:
[1] = tested on: Akt phosphorylation induced by IGF-1R; assay: Western blot analysis of Akt phosphorylation induced by IGF-1 in HT-29 cells; type: cell-based, Human; conditions: for Levels of phosphorylated AKT in treated cells (pAKT/actin): HT-29 cells, IGF-1; for p-AKT relative to levels with 0.1 nM compound: Table B2 lower part; for Normalized phosphorylated AKT (relative to actin) levels relative to 0.1 nM compound treatment: Table B2 upper part
Description: Inhibition of Akt phosphorylation induced by IGF-1R was studied by western blot analysis. Human colon carcinoma HT-29 cells were seeded at a density of 8×10^4 cells/well in a 24-well plate and grown in DME/F12 media containing 10% FBS for 24 h. The cells were then depleted of serum by incubation in DME/F12 media lacking FBS for 24 h. […] […] Lysed cells were centrifuged at 13,000 rpm for 15 min and the protein concentration soluble fraction (supernatant) of each sample was determined using a BCA protein assay (Pierce).

[2] = target: T1, IGF-1R (Homo sapiens, UniProt P08069); assay: In vitro IGF-1R enzymatic assay (ADP-Glo kinase assay); type: biochemical; conditions: activated IGF-1R; for inhibition at 0.03 µM / % Inh @ 30 nM (N1) / % Inh @ 30 nM (N2) / % Inh @ 30 nM Avg: 30 nM; for % Inh @ 30 nM (N1) / % Inh @ 30 nM (N2): 0.03 µM
T1 construct: purchased Millipore 14-802
T1 sequence (P08069 31-1367): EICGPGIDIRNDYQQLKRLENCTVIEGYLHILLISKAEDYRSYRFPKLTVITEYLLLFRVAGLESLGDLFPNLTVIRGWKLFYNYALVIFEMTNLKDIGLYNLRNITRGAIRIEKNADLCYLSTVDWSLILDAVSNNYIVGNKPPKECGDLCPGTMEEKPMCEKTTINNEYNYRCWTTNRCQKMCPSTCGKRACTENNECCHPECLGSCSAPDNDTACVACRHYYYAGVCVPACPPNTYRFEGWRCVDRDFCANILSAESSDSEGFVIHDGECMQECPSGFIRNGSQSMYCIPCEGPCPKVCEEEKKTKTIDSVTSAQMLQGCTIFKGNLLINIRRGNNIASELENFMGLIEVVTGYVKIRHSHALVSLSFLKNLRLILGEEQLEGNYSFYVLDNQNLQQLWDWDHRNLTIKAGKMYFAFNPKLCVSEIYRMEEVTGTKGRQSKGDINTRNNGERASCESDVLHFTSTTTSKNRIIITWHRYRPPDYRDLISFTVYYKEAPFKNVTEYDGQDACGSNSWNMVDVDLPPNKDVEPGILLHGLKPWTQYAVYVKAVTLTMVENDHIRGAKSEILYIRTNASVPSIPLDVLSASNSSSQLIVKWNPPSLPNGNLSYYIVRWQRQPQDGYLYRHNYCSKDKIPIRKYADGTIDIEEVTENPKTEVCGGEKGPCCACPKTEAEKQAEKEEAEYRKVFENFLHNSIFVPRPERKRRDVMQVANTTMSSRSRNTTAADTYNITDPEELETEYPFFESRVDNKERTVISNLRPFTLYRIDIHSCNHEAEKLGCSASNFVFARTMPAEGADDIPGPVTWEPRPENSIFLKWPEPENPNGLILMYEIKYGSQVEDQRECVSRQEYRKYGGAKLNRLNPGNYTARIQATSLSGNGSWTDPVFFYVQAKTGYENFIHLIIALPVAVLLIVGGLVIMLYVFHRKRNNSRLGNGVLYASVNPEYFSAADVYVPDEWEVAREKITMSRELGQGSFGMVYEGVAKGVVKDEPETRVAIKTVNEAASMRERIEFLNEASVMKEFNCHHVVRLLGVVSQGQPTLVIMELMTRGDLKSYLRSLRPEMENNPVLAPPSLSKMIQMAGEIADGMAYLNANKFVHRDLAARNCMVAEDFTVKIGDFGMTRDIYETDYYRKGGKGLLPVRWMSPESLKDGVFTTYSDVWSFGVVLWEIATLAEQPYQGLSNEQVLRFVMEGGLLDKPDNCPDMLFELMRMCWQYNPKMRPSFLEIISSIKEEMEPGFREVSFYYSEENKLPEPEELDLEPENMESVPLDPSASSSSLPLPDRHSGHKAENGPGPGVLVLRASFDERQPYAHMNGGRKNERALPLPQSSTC
Description: (§1) IC50 values of the compounds of the invention against IGF-1R and IR were measured in vitro using an ADP-Glo kinase assay Kit (Promega). […] Kinase reactions in both assays were conducted at 30° C. for 20 min with increasing concentrations of compounds of the invention.
Additional compounds of the invention were screened against activated IGF-1R.

[3] = target: T2, IR (Homo sapiens, UniProt P06213); assay: In vitro IR enzymatic assay (ADP-Glo kinase assay); type: biochemical; conditions: activated IR, 30 nM; for % Inh @ 30 nM (N1) / % Inh @ 30 nM (N2): 0.03 µM
T2 construct: purchased Millipore 14-803
T2 sequence (P06213 28-1382): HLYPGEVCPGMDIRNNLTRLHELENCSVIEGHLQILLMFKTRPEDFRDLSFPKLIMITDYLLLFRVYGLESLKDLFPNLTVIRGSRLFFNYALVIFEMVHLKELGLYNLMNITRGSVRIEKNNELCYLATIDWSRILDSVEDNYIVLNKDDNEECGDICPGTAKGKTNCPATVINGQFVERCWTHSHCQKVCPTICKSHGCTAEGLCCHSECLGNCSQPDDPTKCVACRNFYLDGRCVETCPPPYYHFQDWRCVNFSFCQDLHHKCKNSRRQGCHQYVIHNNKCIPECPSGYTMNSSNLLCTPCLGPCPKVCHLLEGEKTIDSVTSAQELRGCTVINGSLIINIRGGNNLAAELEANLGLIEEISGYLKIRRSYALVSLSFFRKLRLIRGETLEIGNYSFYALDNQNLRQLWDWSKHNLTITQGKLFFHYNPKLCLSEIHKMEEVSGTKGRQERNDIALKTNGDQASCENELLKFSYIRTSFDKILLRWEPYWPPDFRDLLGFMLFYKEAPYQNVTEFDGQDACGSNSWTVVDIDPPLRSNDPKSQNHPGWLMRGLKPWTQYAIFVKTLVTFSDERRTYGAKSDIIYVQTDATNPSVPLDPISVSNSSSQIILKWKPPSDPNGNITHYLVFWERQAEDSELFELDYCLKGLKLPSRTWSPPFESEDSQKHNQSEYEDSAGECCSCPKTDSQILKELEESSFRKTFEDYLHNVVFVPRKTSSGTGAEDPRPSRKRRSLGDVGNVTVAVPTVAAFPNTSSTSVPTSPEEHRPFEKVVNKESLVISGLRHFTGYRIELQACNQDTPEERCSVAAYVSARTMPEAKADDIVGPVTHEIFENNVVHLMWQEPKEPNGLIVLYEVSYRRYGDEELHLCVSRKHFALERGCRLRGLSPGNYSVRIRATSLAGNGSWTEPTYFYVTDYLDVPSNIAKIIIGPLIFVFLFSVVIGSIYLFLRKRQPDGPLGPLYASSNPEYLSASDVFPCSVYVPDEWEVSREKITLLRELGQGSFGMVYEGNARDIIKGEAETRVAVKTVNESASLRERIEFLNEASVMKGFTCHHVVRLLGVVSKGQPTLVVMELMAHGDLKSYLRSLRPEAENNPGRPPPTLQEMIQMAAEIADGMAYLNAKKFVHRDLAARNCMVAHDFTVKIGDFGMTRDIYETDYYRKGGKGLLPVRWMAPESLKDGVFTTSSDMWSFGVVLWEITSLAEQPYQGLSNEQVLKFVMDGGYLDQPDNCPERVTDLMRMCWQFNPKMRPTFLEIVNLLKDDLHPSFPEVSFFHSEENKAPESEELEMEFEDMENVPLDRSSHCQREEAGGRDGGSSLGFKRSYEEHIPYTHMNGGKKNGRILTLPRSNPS
Description: as §1
Additional compounds of the invention were screened against activated IR.

[4] = N1, read-out: % Inh @ 30 nM (N1)
[5] = N2, read-out: % Inh @ 30 nM (N2)
[6] = average, read-out: % Inh @ 30 nM Avg

With `CC(C)c1cc(Nc2nc(N3CCCC3C(=O)Nc3ccc(F)nc3)nc3c2CCC3)on1` (racemic) [Compound 12b, N-(6-fluoropyridin-3-yl)-1-(4-(3-isopropylisoxazol-5-ylamino)-6,7-dihydro-5H-cyclopenta[d]pyrimidin-2-yl)pyrrolidine-2-carboxamide] the “Levels of phosphorylated AKT in treated cells (pAKT/actin)” value (“Levels … (pAKT/actin)” for short) ([1]; 0.1 nM compound) was 3.66, the “p-AKT relative to levels with 0.1 nM compound” value (from here on “p-AKT relative to levels”) ([1]; 0.1 nM) was 1.0 and the “Normalized phosphorylated AKT (relative to actin) levels relative to 0.1 nM compound treatment” value ([1]; 0.1 nM) was 1.0. For the same compound, the “Levels … (pAKT/actin)” value ([1]; 1 nM compound) was 3.56, the “p-AKT relative to levels” value ([1]; 1 nM) was 1.0 and the “Normalized phosphorylated AKT (relative to actin) levels relative to 0.1 nM compound treatment” value ([1]; 1 nM) was 1.0. For the same compound, the “Levels … (pAKT/actin)” value ([1]; 10 nM compound) was 4.32, the “p-AKT relative to levels” value ([1]; 10 nM) was 1.2 and the “Normalized phosphorylated AKT (relative to actin) levels relative to 0.1 nM compound treatment” value ([1]; 10 nM) was 1.2. For the same compound, the “Levels … (pAKT/actin)” value ([1]; 100 nM compound) was 2.29, the “p-AKT relative to levels” value ([1]; 100 nM) was 0.6 and the “Normalized phosphorylated AKT (relative to actin) levels relative to 0.1 nM compound treatment” value ([1]; 100 nM) was 0.6. It also gave an inhibition at 0.03 µM [2, 4] of 13%, an inhibition at 0.03 µM [2, 5] of 34% and an inhibition at 0.03 µM [2, 6] of 24%. For the same compound, the inhibition at 0.03 µM [3, 4] was -14%, the inhibition at 0.03 µM [3, 5] was -10% and the inhibition at 0.03 µM [3, 6] was -12%.
Compound `CC(C)c1cc(Nc2nc(N3CC(O)CC3C(=O)Nc3ccc(F)nc3)nc3c2CCC3)n[nH]1` (racemic) [Compound 70, N-(6-fluoropyridin-3-yl)-4-hydroxy-1-(4-(5-isopropyl-1H-pyrazol-3-ylamino)-6,7-dihydro-5H-cyclopenta[d]pyrimidin-2-yl)pyrrolidine-2-carboxamide] has an IC50 [2] of 22 nM, an inhibition at 0.03 µM [2, 6] of 66% and an inhibition at 0.03 µM [3, 6] of 60%.
In the case of `O=C(Nc1ccc(F)nc1)C1CCCN1c1nc2c(c(Nc3cc(C4CC4)[nH]n3)n1)CCC2` (single isomer, unassigned) [Compound 2a, 1-(4-(5-cyclopropyl-1H-pyrazol-3-ylamino)-6,7-dihydro-5H-cyclopenta[d]pyrimidin-2-yl)-N-(6-fluoropyridin-3-yl)pyrrolidine-2-carboxamide], the “Levels … (pAKT/actin)” value ([1]; 0.1 nM compound) is reported as 1.70, the “p-AKT relative to levels” value ([1]; 0.1 nM) is reported as 1.0 and the “Normalized phosphorylated AKT (relative to actin) levels relative to 0.1 nM compound treatment” value ([1]; 0.1 nM) is reported as 1.0. For the same compound, the “Levels … (pAKT/actin)” value ([1]; 1 nM compound) was 1.78, the “p-AKT relative to levels” value ([1]; 1 nM) was 1.0 and the “Normalized phosphorylated AKT (relative to actin) levels relative to 0.1 nM compound treatment” value ([1]; 1 nM) was 1.0. For the same compound, the “Levels … (pAKT/actin)” value ([1]; 10 nM compound) was 1.81, the “p-AKT relative to levels” value ([1]; 10 nM) was 1.1 and the “Normalized phosphorylated AKT (relative to actin) levels relative to 0.1 nM compound treatment” value ([1]; 10 nM) was 1.1. The “Levels … (pAKT/actin)” value ([1]; 100 nM compound) was 1.72, the “p-AKT relative to levels” value ([1]; 100 nM) was 1.0 and the “Normalized phosphorylated AKT (relative to actin) levels relative to 0.1 nM compound treatment” value ([1]; 100 nM) was 1.0. It also gave an inhibition at 0.03 µM [2, 4] of -12%, an inhibition at 0.03 µM [2, 5] of 18% and an inhibition at 0.03 µM [2, 6] of 3%. For the same compound, the inhibition at 0.03 µM [3, 4] was 0%, the inhibition at 0.03 µM [3, 5] was 10% and the inhibition at 0.03 µM [3, 6] was 5%.
For `O=C(Nc1ccc(F)nc1)C1CCCN1c1nc2c(c(Nc3cc(C4CCCC4)[nH]n3)n1)CCC2` (single isomer, unassigned) [Compound 4a, 1-(4-(3-cyclopentyl-1H-pyrazol-5-ylamino)-6,7-dihydro-5H-cyclopenta[d]pyrimidin-2-yl)-N-(6-fluoropyridin-3-yl)pyrrolidine-2-carboxamide], the “Levels … (pAKT/actin)” value ([1]; 0.1 nM compound) was 2.38, the “p-AKT relative to levels” value ([1]; 0.1 nM) was 1.0 and the “Normalized phosphorylated AKT (relative to actin) levels relative to 0.1 nM compound treatment” value ([1]; 0.1 nM) was 1.0. For the same compound, the “Levels … (pAKT/actin)” value ([1]; 1 nM compound) was 1.64, the “p-AKT relative to levels” value ([1]; 1 nM) was 0.7 and the “Normalized phosphorylated AKT (relative to actin) levels relative to 0.1 nM compound treatment” value ([1]; 1 nM) was 0.7. For the same compound, the “Levels … (pAKT/actin)” value ([1]; 10 nM compound) was 1.76, the “p-AKT relative to levels” value ([1]; 10 nM) was 0.7 and the “Normalized phosphorylated AKT (relative to actin) levels relative to 0.1 nM compound treatment” value ([1]; 10 nM) was 0.7. For the same compound, the “Levels … (pAKT/actin)” value ([1]; 100 nM compound) was 1.47, the “p-AKT relative to levels” value ([1]; 100 nM) was 0.6 and the “Normalized phosphorylated AKT (relative to actin) levels relative to 0.1 nM compound treatment” value ([1]; 100 nM) was 0.6. The “% Inh @ 30 nM (N1)” value ([2]; N1) was 4%, the “% Inh @ 30 nM (N2)” value ([2]; N2) was 17% and the “% Inh @ 30 nM Avg” value ([2]; average) was 10%. The “% Inh @ 30 nM (N1)” value ([3]; N1) was −14%, the “% Inh @ 30 nM (N2)” value ([3]; N2) was −2% and the “% Inh @ 30 nM Avg” value ([3]; average) was −8%.
In the case of `O=C(Nc1ccc(F)nc1)C1CCCN1c1nc2c(c(Nc3cc(C4CCCC4)[nH]n3)n1)CCC2` (single isomer, unassigned) [Compound 4b, 1-(4-(3-cyclopentyl-1H-pyrazol-5-ylamino)-6,7-dihydro-5H-cyclopenta[d]pyrimidin-2-yl)-N-(6-fluoropyridin-3-yl)pyrrolidine-2-carboxamide], the “Levels … (pAKT/actin)” value ([1]; 0.1 nM compound) is reported as 1.81, the “p-AKT relative to levels” value ([1]; 0.1 nM) is reported as 1.0 and the “Normalized phosphorylated AKT (relative to actin) levels relative to 0.1 nM compound treatment” value ([1]; 0.1 nM) is reported as 1.0. The “Levels … (pAKT/actin)” value ([1]; 1 nM compound) was 1.92, the “p-AKT relative to levels” value ([1]; 1 nM) was 1.1 and the “Normalized phosphorylated AKT (relative to actin) levels relative to 0.1 nM compound treatment” value ([1]; 1 nM) was 1.1. For the same compound, the “Levels … (pAKT/actin)” value ([1]; 10 nM compound) was 1.64, the “p-AKT relative to levels” value ([1]; 10 nM) was 0.9 and the “Normalized phosphorylated AKT (relative to actin) levels relative to 0.1 nM compound treatment” value ([1]; 10 nM) was 0.9. The “Levels … (pAKT/actin)” value ([1]; 100 nM compound) was 0.20, the “p-AKT relative to levels” value ([1]; 100 nM) was 0.1 and the “Normalized phosphorylated AKT (relative to actin) levels relative to 0.1 nM compound treatment” value ([1]; 100 nM) was 0.1. For the same compound, the “% Inh @ 30 nM (N1)” value ([2]; N1) was 22%, the “% Inh @ 30 nM (N2)” value ([2]; N2) was 35% and the “% Inh @ 30 nM Avg” value ([2]; average) was 28%. The “% Inh @ 30 nM (N1)” value ([3]; N1) was 41%, the “% Inh @ 30 nM (N2)” value ([3]; N2) was 33% and the “% Inh @ 30 nM Avg” value ([3]; average) was 37%.
Compound `O=C(Nc1ccc(F)nc1)C1CC(O)CN1c1nc2c(c(Nc3cc(C4CC4)[nH]n3)n1)CCC2` (single isomer, unassigned) [Compound 10d, 1-(4-(5-cyclopropyl-1H-pyrazol-3-ylamino)-6,7-dihydro-5H-cyclopenta[d]pyrimidin-2-yl)-N-(6-fluoropyridin-3-yl)-4-hydroxypyrrolidine-2-carboxamide] has an inhibition at 0.03 µM [2, 6] of 84% and an inhibition at 0.03 µM [3, 6] of 85%.
`CC(C)c1cc(Nc2nc(N3CCCC3C(N)=O)nc3c2CCC3)n[nH]1` (single isomer, unassigned) [Compound 18a, 1-(4-(5-isopropyl-1H-pyrazol-3-ylamino)-6,7-dihydro-5H-cyclopenta[d]pyrimidin-2-yl)pyrrolidine-2-carboxamide] was tested, and the “% Inh @ 30 nM Avg” value ([2]; average) was 14% and the “% Inh @ 30 nM Avg” value ([3]; average) was 3%.
In the case of `CC(C)c1cc(Nc2nc(N3CCCC3C(N)=O)nc3c2CCC3)n[nH]1` (single isomer, unassigned) [Compound 18b, 1-(4-(5-isopropyl-1H-pyrazol-3-ylamino)-6,7-dihydro-5H-cyclopenta[d]pyrimidin-2-yl)pyrrolidine-2-carboxamide], the “% Inh @ 30 nM Avg” value ([2]; average) is reported as 39% and the “% Inh @ 30 nM Avg” value ([3]; average) is reported as 32%.
With `CNC(=O)C1CCCN1c1nc2c(c(Nc3cc(C(C)C)[nH]n3)n1)CCC2` (single isomer, unassigned) [Compound 19a, 1-(4-(5-isopropyl-1H-pyrazol-3-ylamino)-6,7-dihydro-5H-cyclopenta[d]pyrimidin-2-yl)-N-methylpyrrolidine-2-carboxamide] the “% Inh @ 30 nM Avg” value ([2]; average) was −3% and the “% Inh @ 30 nM Avg” value ([3]; average) was −9%.
For `CNC(=O)C1CCCN1c1nc2c(c(Nc3cc(C(C)C)[nH]n3)n1)CCC2` (single isomer, unassigned) [Compound 19b, 1-(4-(5-isopropyl-1H-pyrazol-3-ylamino)-6,7-dihydro-5H-cyclopenta[d]pyrimidin-2-yl)-N-methylpyrrolidine-2-carboxamide], the “% Inh @ 30 nM Avg” value ([2]; average) was 21% and the “% Inh @ 30 nM Avg” value ([3]; average) was 9%.
`CC(C)c1cc(Nc2nc(N3CCCC3C(=O)N(C)c3ccc(F)nc3)nc3c2CCC3)n[nH]1` (stereo not drawn) [Compound 55a, N-(6-fluoropyridin-3-yl)-1-(4-((5-isopropyl-1H-pyrazol-3-yl)amino)-6,7-dihydro-5H-cyclopenta[d]pyrimidin-2-yl)-N-methylpyrrolidine-2-carboxamide] gave an inhibition at 0.03 µM [2, 6] of 13% and an inhibition at 0.03 µM [3, 6] of 8%.
